Measured values: patent publication US20070197471A1, “Treatment of degenerative cartilage conditions in a mammal with Glycosidasc Inhibitors” (Optimer Pharmaceuticals, Inc., priority 2004, published 2007)

Assays:
[1] = system: IL-1β-infused rabbit knee joint (tibial plateau cartilage); test: IL-1β-induced sGAG loss in rabbit knee cartilage, continuous intra-articular infusion; format: in vivo
Protocol: Female New Zealand White rabbits, 3.0-3.5 kg, were used and were randomly allocated into groups of 8 rabbits. Under aseptic conditions, 2 ml Alzet osmotic pumps (delivery flow rate: 10 μl/h, (Alzet 2ML1, Alza, USA)) were filled with IL-1β (1000 U/ml; R&D Systems, USA). Separate 2 ml Alzet pumps were filled with 30 mM of the hexosaminidase inhibitor (2R,3R,4R,5R)-N-methyl-(2-acetamidomethyl-3,4dihydroxy-5-hydroxymethyl)-pyrrolidine, also known as OPT-66, or with saline. The Alzet pumps were implanted subcutaneously in the lower abdomen of rabbits, and were connected by a polyethylene tubing (ID: 0.025 in) threaded subcutaneously to the left knee joint with their tips resting in the synovial space. The untreated contralateral knees of all animals served as negative controls. IL-1β and (2R,3R,4R,5R)-N-methyl-(2-acetamidomethyl-3,4-diydroxy-5-hydroxymethyl)-pyrrolidine were infused intra-articularly for 7 days. Immediately before surgery, and for 3 consecutive days thereafter, Marbocyl, 6 mg/kg/day, is administered (i.m.) to prevent infection. Animals were harvested on day 7. […]
Blyscan dye (Biocolor, USA) was added to each tube and vortexed. […] The absorbance of the sample was then observed at 656 nm using a spectrophotometer. […] The absorbance of the blank was subtracted from each sample. Results are expressed as micrograms of sGAG recovered per milligram wet weight of cartilage tissue.

hexosaminidase = details: read-out: Ki against hexosaminidase; cited from earlier work
[2] = system: rabbit knee after ACL transection; test: ACL transection (ACLT) osteoarthritis model in the rabbit knee, continuous intra-articular infusion; format: in vivo; details: 8 weeks after ACLT; for chondro-degenerative pathology to the knee joint: 30 mM via Alzet pump 2.5 μl/hour intra-articular, vs saline-treated animals
Protocol: The model used in this study is the transection of the anterior cruciate ligament (ACL) in the rabbit knee. ACL transection (ACLT) causes joint instability and subsequent development of degradative and osteoarthritis-like changes.
Female New Zealand White rabbits, 3.0-3.5 kg, were used and were randomly allocated into groups of 8 rabbits. Group A was the saline-treated control group; Group B was treated with 30 mM of the hexosaminidase inhibitor (2R,3R,4R,5R)-N-methyl-(2-acetamidomethyl-3,4-dihydroxy-5-hydroxymethyl)-pyrrolidine, which is also known as OPT-66. All the compounds were delivered by a 2ml Alzet osmotic pump (Alzet 2ML4, Alza, USA). The delivery rate from the pump was 2.5 μl/hour. All rabbits received ACLT surgery on the right knee.
All rabbits were anesthetized by an intramuscular injection of ketamine (35 mg/kg) and acepromazine (2.5 mg/kg). Knees were shaved and disinfected with Antibex (Vetoquinol S.A.) solution. A medial parapatellar incision was made on the skin and a medial arthrotomy was performed. The patella was dislocated laterally and the knee was placed in full flexion. The ACL was visualized and transected with a #15 blade. Complete transection was confirmed by a manual anterior drawer test. The joint was irrigated with sterile saline then closed. Before the closure of knee joint, an Alzet pump prefilled with compounds (either with saline or with the hexosaminidase inhibitor (2R,3R,4R,5R)-N-methyl-(2-acetamidomethyl-3,4-dihydroxy-5-hydroxymethyl)-pyrrolidine, also known as OPT-66, was implanted subcutaneously in the lower right abdomen of rabbits. The pump was connected by polyethylene tubing (ID: 0.58 mm), which was inserted into the right knee joint with its tip resting in the synovial space. The joint capsule was closed with a running suture and the tubing connecting the pump was also fixed into the tissue. The skin was closed with interrupted sutures. The Alzet pumps were replaced with fresh units at the end of the fourth week after the operation.
The animals were sacrificed eight (8) weeks after ACLT. The gross morphological changes of both knees, including joint swelling and joint fluid, were evaluated.
The grading of the joint swelling is as following: 0 (normal); 1 (mild), inflammation and/or proliferation of the joint capsule; 2 (moderate), thickening of joint capsule and/or inflammation of the synovium; 3 (severe) abundant inflammation of the synovium, swelling of the menisci or ligaments (anterior or posterior cruciate ligaments).

cultured chondrocytes = details: cited from earlier work

SMILES: CC(=O)NCC1C(O)[C@H](O)C(CO)N1C (stereo partly drawn) [OPT-66, (2R,3R,4R,5R)-N-methyl-(2-acetamidomethyl-3,4-dihydroxy-5-hydroxymethyl)-pyrrolidine]
- amount of recoverable sGAG per wet weight of left tibial plateau cartilage ([1]; IL-1β 1000 U/ml plus 30 mM inhibitor infused intra-articularly for 7 days (FIG. 5)): approximately 41 μg/mg
- increase of recoverable sGAG over saline-treated knees ([1]; IL-1β plus 30 mM inhibitor infused intra-articularly for 7 days): 24%
- Ki (hexosaminidase): 24 nM
- chondro-degenerative pathology to the knee joint [2]: consistently less chondro-degenerative pathology
- chondro-degenerative pathology to the knee joint ([2]; listed as specific hexosaminidase inhibitor): chondroprotective benefit
- severity of femur lesion scores ([2]; 30 mM via Alzet pump, vs saline-treated animals (FIG. 1)): statistically significant decrease
- severity of tibia lesion scores ([2]; 30 mM via Alzet pump, vs saline-treated animals (FIG. 2)): statistically significant decrease
- joint swelling grading ([2]; 30 mM via Alzet pump, vs saline-treated animals (FIG. 3)): trend towards decreased joint-swelling
- synovial (joint) fluid grading ([2]; 30 mM via Alzet pump, vs saline-treated animals (FIG. 4)): normal levels of fluid in the knee joint
- cytokine-induced loss of GAGs (cultured chondrocytes): preventing cytokine-induced loss of GAGs
